Where two headings read alike, the source gives them in different places.
Legend:
[1] = Pharmacokinetic experiment in Beagle dogs; assay type: in vivo, Beagle dog; conditions: oral capsules, 5 mg/kg
Protocol: The inventors conducted a pharmacokinetic evaluation of the salt or its crystal form of the present invention in Beagle dogs.
The test sample (i.e., the salt or crystal form of the present invention, or the compound having formula (I) of the present invention) was filled into capsules for oral administration. The animals were fasted for 12 h before the administration, and they had free drinking water. Capsules containing test samples were administered orally at a dose of 5 mg/kg. After administration, intravenous blood was collected at the following time points (about 0.15 mL of blood taken): 0.25, 0.5, 1.0, 2.0, 4.0, 6.0, 8.0 and 24 h. EDTA-K2 was added as an anticoagulant in the blood collection tube in advance, the blood sample was centrifuged at 12,000 rpm for 2 minutes, the plasma was collected, and stored at −20° C. or −70° C.
After processing the plasma samples collected above (after the frozen plasma was thawed at room temperature, it was whirled for 5 minutes to mix well, then 20 μL of plasma was taken, 120 μL of acetonitrile solution containing internal standard was added, the mixture was whirled for 5 minutes to mix well, and centrifuged at 4,000 rpm for 5 minutes, then 100 μL of the supernatant was taken, 130 μL of methanol-water (V/V=1/1) was added to mix well), a standard curve with a suitable range was established according to the concentration of the test sample, and the LC-MS/MS with AB SCIEX API5500 was used, the concentration of the test sample in the plasma sample was determined in the MRM mode, and quantitative analysis was performed. Pharmacokinetic parameters were calculated according to drug concentration-time curve using a non-compartmental method by WinNonLin 6.3 software.

[2] = Stability experiment (high temperature, high humidity, light); assay type: physicochemical
Protocol: (§1) (1) High temperature experiment: an appropriate amount of a batch of test samples were taken into flat weighing bottles, and spread into a thin layer ≥5 mm thick. The above weighing bottles were placed in a constant temperature box at 40° C.±2° C./75%±5% RH and/or 60° C.±2° C./75%±5% RH for 30 days, the samples were taken on the 5th, 10th, and 30th days, and tested according to the key stability inspection items: the color changes of the samples were observed, the purities of the samples were checked by HPLC, and the structure of the samples were analyzed by X-ray powder diffraction.
as §1, with “(2)” for “(1)”, “humidity” for “temperature”, “placed” for “placed in a constant temperature box”, “25° C.,” for “40° C.±2° C./75%±5%”, “75%±5% or RH 90%±5%” for “and/or 60° C.±2° C./75%±5%”, “structures” for “structure”
as §1, with “(3) Light” for “(1) High temperature”, “placed and opened” for “placed”, “light” for “constant temperature”, “box (with UV)” for “box”, “the illuminance 4500±500 lx, UV light ≤0.7 w·h/m^2” for “40° C.±2° C./75%±5% RH and/or 60° C.±2° C./75%±5% RH”, “structures” for “structure”

[3] = Hygroscopicity experiment; assay type: physicochemical; conditions: 25° C., saturated ammonium chloride solution desiccator, 24 hours
Protocol: 1) A dry stoppered glass weighing bottle (outer diameter of 50 mm, height of 15 mm) was taken the day before, and placed in a 25° C.±1° C. constant temperature desiccator (a saturated ammonium chloride solution was placed at the bottom), and the weighing bottle was weighed accurately (m1).
2) An appropriate amount of the test sample was taken, and spread flat in the above weighing bottle, the thickness of the test sample was generally about 1 mm, and the weighing bottle was weighed accurately (m2).
3) The weighing bottle was open and placed under the above constant temperature and humidity conditions with the bottle cap for 24 hours.
4) The bottle cap was covered on the weighing bottle, and weighed accurately (m3), and calculate: the percentage increase in weight %=(m3−m2)/(m2−m1)×100%

[4] = Solubility experiment in water; assay type: physicochemical
Protocol: The solubility of the present invention was determined using an Agilent 1200 High Performance Liquid Chromatograph DAD/VWD detector with an Agilent XDB-C18 model (4.6×50 mm, 5 μm). Detection wavelength was 266 nm, flow rate was 1.0 mL/min, the column temperature was 35° C., mobile phase A: acetonitrile: 0.01 M ammonium acetate=10:90 (V:V), analysis methods: acetonitrile: mobile phase A=70:30 (V:V), running time was 10 minutes.
The test sample was taken into 37° C. organic ultrapure water to prepare a supersaturated solution. After shaking for 24 h, the mixture was filtered with an aqueous filter membrane to obtain the filtrate. The solubility of the test sample in water was detected by HPLC.

[5] = High humidity (25° C., RH 75% ± 5%), the 5th day
[6] = High humidity (25° C., RH 75% ± 5%), the 10th day
[7] = High humidity (25° C., RH 75% ± 5%), the 30th day
[8] = High humidity (25° C., RH 90% ± 5%), the 5th day
[9] = High humidity (25° C., RH 90% ± 5%), the 10th day
[10] = High humidity (25° C., RH 90% ± 5%), the 30th day
[11] = High temperature (40° C.), the 5th day
[12] = High temperature (40° C.), the 10th day
[13] = High temperature (40° C.), the 30th day
[14] = High temperature (60° C.), the 5th day
[15] = High temperature (60° C.), the 10th day
[16] = High temperature (60° C.), the 30th day

SMILES: CN1CCC(=C(F)c2cccc(NC(=O)c3c(F)cc(F)cc3F)n2)CC1.CS(=O)(=O)O [Example 1]
- AUClast [1]: 238 ng·h/mL
- Cmax [1]: 0.0999 µg/mL
- Tmax [1]: 0.667 h
- Appearance ([2]; 0 day): white
- Purity ([2]; 0 day): 99.66%
- Appearance [2, 5]: white
- Purity [2, 5]: 99.71%
- Appearance [2, 6]: white
- Purity [2, 6]: 99.74%
- Appearance [2, 7]: white
- Purity [2, 7]: 99.77%
- Appearance [2, 8]: white
- Purity [2, 8]: 99.68%
- Appearance [2, 9]: white
- Purity [2, 9]: 99.71%
- Appearance [2, 10]: white
- Purity [2, 10]: 99.72%
- Appearance [2, 11]: white
- Purity [2, 11]: 99.73%
- Appearance [2, 12]: white
- Purity [2, 12]: 99.72%
- Appearance [2, 13]: white
- Purity [2, 13]: 99.79%
- Appearance [2, 14]: white
- Purity [2, 14]: 99.72%
- Appearance [2, 15]: white
- Purity [2, 15]: 99.74%
- Appearance [2, 16]: white
- Purity [2, 16]: 99.8%
- Appearance ([2]; Light, the 5th day): white
- Purity ([2]; Light, the 5th day): 99.59%
- Appearance ([2]; Light, the 10th day): white
- Purity ([2]; Light, the 10th day): 99.43%
- Appearance ([2]; Light, the 30th day): white
- Purity ([2]; Light, the 30th day): 97.66%
- Changes of appearance, purity and crystal form ([2]; high temperature, high humidity and light, 30 days): no obvious changes
- Hygroscopic feature [3]: no or almost no hygroscopicity
- Concentration of compound having formula (I) in saturated aqueous solution ([4]; 37° C. water, shaking for 24 h): 300880 µg/mL

SMILES: CN1CCC(=C(F)c2cccc(NC(=O)c3c(F)cc(F)cc3F)n2)CC1.O=S(=O)(O)c1ccccc1 [Example 3]
- Concentration of compound having formula (I) in saturated aqueous solution ([4]; 37° C. water, shaking for 24 h): 1890 µg/mL

SMILES: CN1CCC(=C(F)c2cccc(NC(=O)c3c(F)cc(F)cc3F)n2)CC1 [Compound having formula (I), 2,4,6-trifluoro-N-(6-(fluoro(1-methylpiperidin-4-ylidene)methyl)pyridin-2-yl)benzamide]
- AUC(0-t) ([1]; dog, plasma): 117 ng·h/mL
- Cmax ([1]; dog, plasma, read-out: Cmax): 0.0328 µg/mL
- Tmax ([1]; dog, plasma, read-out: Tmax): 3.67 h
- Water solubility (in words) [4]: poor water solubility
- solubility thermodynamic at 24 h ([4]; thermodynamic from solid, 37° C. water, shaking for 24 h, read-out: Concentration of compound having formula (I) in saturated aqueous solution): 2590 µg/mL

— patent US12662462B2, “Salts of pyridinylmethylenepiperidine derivatives and uses thereof” (SUNSHINE LAKE PHARMA CO., LTD., priority 2020, dated 2026)
